The values that follow come from US20170232031A1, “Inhibitors of Zika Virus” (Riboscience LLC, priority 2016, published 2017).

“Also recorded” adds a separate entry of the source. Like-named read-outs stand apart in the source and are kept apart here.

For series [1], the system named is ZIKV strain MR766 (Genbank LC002520). As to the kind of experiment: Antiviral activity against ZIKV replication in cells. The class given is cell-based, Zika virus. The procedure:
(§1) The human hepatoma cell line Huh-7, are cultured in DMEM without phenol-red (Cellgro Mediatech, Cat #10-013-CV containing 4.5 g/l glucose, L-glutamine & sodium pyruvate). The medium is further supplemented with 10% (v/v) FBS (ATLAS Cat # F-0500-A, lot#850114A) and 1% (vlv) penicillin/streptomycin (Cellgro Mediatech #30-022-CI). Cells are maintained at 37° C. in a humidified 5% CO2 atmosphere. Zika virus representative strain titers are measured on BHK-21 cells, using a standard plaque assay procedure. For the determination of EC50 of nucleoside in the antiviral assay, Huh-7 cells are plated in white 96-well plates in MEM media supplemented with 10% FBS and 1% penicillin/streptomycin. After incubation for 24 h, the cells are infected at a multiplicity of infection (MOI) of 0.5 for 2 h at 37° C. Ten three-fold dilutions of compounds are prepared in the same media supplemented with 1% DMSO. After the 2 h adsorption phase, the virus is aspirated off and diluted compound is added to four wells each. Huh-7 cells are plated as described above and exposed to the same concentration range of compounds. Untreated cells are carried along as a control. After a 3-day incubation at 37° C., the cell viability is determined using Cell-titer Glo™ reagent (Promega, Madison, Wis.) that is added to each well and incubated for 5 min. Plates are analyzed using a Thermo Luminoskan plate reader (Waltham, Mass.).

Series [2] in a line: Cell viability (CC50) alongside ZIKV antiviral assay, Cell-titer Glo. In kind it is cell-based. The note with it: human, Huh-7 cells. As for the experimental part:
as §1

The subject of series [3] is HCV replicon of genotype 1b (Con1). As to the kind of experiment: HCV replicon genotype 1b antiviral activity. The class given is cell-based. Conditions: Hepatitis C virus; replicon genotype 1b (Con1); read-out: HCV GT1b EC50. In general terms: A replicon is a self-replicating genome or part of one, used to study replication in cells.
In series [4] the test system is Chikungunya replicon (CHIKV strain LR2006 OPY-1, GenBank EU224270). As to the kind of experiment: Chikungunya replicon antiviral activity. Conditions: Chikungunya virus. In kind it is cell-based. The source says: (§2) FIG. 3. Antiviral activity of I-3 against ZIKV and CHIKV replication and cell viability determined in Huh-7 cell derived CHIKV replicon cells by intracellular ATP quantification (CellTiter-Glo).
(§3) Antiviral activity of I-3 (prodrug of 4AU) against ZIKV and CHIKV replication and cell viability determined in Huh-7 cell derived CHIKV replicon cells by intracellular ATP quantification (CellTiter-Glo).

A short description of a further series: in vitro. In kind it is cell-based. The note with it: human; Huh-7 cell derived CHIKV replicon cells.
Text: as §2, §3

A further series deals with T1, human RNA polymerase I (Homo sapiens, UniProt O95602+Q9H9Y6).
T1 construct: endogenous in cells; host or cells: HeLa
As to the kind of experiment: RNA polymerase I specific reporter gene assay in HeLa cells. The class given is cell-based. Conditions: 10 or 100 μM (highest soluble concentrations). (In general: Reporter assays use an easily measured gene product as a stand-in for the process of interest.)

The target of a further series is T2, human RNA polymerase II (Homo sapiens, UniProt P24928+P30876).
T2 construct: endogenous in cells; host or cells: HeLa
Put plainly: RNA polymerase II specific reporter gene assay in HeLa cells. In kind it is cell-based. The note with it: 10 or 100 μM (highest soluble concentrations).

A further series concerns the target T3, human RNA polymerase III (Homo sapiens, UniProt O14802+Q9NW08).
T3 construct: endogenous in cells; host or cells: HeLa
Put plainly: RNA polymerase III specific reporter gene assay in HeLa cells. In kind it is cell-based. The note with it: 10 or 100 μM (highest soluble concentrations).

Series [5] can be described thus: Cytotoxicity (CC50) alongside HCV GT1b replicon assay. Conditions: HCV GT1b (Con1) replicon cells.
Series [6] concerns the target T4, mitochondrial DNA polymerase pol γ (Homo sapiens, UniProt P54098).
T4 sequence (P54098 1-1239): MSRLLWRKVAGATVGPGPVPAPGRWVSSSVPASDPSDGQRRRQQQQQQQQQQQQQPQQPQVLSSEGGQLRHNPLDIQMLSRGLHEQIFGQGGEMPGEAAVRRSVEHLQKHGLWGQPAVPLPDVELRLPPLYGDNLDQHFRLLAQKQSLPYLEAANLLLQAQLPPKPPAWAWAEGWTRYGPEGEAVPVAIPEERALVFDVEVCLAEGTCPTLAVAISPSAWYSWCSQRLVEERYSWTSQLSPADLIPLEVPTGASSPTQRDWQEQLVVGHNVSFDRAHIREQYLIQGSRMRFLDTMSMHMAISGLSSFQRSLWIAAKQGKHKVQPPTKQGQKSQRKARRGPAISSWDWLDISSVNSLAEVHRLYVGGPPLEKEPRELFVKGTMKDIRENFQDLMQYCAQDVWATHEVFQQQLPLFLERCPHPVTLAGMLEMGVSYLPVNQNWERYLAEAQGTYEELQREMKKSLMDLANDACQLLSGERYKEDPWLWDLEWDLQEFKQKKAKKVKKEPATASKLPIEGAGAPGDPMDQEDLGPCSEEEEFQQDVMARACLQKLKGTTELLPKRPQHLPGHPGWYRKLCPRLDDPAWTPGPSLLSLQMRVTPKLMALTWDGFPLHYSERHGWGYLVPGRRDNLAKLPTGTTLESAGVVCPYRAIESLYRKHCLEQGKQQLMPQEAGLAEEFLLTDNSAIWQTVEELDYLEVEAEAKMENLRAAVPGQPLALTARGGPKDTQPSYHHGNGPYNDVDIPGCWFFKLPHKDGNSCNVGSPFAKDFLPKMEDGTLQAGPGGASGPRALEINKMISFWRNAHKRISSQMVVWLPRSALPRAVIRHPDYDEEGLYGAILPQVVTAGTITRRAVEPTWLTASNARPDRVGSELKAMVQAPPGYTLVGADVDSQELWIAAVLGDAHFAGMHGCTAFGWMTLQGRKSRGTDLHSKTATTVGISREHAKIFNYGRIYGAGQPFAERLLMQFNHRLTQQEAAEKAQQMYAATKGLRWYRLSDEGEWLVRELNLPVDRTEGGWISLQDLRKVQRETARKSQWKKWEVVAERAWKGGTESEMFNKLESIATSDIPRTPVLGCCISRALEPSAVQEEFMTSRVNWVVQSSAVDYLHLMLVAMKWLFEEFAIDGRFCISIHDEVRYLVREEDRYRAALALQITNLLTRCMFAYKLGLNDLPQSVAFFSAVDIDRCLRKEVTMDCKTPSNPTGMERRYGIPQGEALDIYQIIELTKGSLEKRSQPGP
Put plainly: Inhibition of mitochondrial DNA polymerase pol γ. In kind it is biochemical. Conditions: comparison nucleoside triphosphates; read-out: DNA pol γ mean IC50.

In another series the test system is HepG2 cells. Put plainly: Mitochondrial toxicity in HepG2 cells (COX-I / SDH-A ratio). Conditions: up to 11-day incubation. From the text:
Mean values shown as individual data points; standard deviations as error bars (FIG. 4).

Series [7] is classed as in vitro ADME, human. As for the experimental part: The formation of 4AUTP triphosphate is determined in human cells (Huh-7 cells, PBMC), and representative mouse, rat, dog and cynomolgus monkey cells. The intracellular triphosphate concentration is determined using LC-MS/MS. In human cells, the time and concentration dependent formation of 4AUTP triphosphate is determined, as well as the half-life after removal of all extracellular prodrug by exchange of cell culture medium. Analysis of intracellular nucleoside phosphates is conducted using well-established methods.

The conditions of series [8]: 13 week, GLP; cited from earlier work.
The conditions of series [9]: 13 week, GLP; cited from earlier work. The source holds these as a separate data set.
The subject of a further series is HCV replication. Conditions: humans; cited from earlier work.
For series [10] the following is noted: human, in vivo; cited from earlier work.
The subject of the next series is ZIK-V-RLuc. Put plainly: Renilla Luciferase (Rluc) assay, % infection of ZIK-V-RLuc. The class given is cell-based. Conditions: Zika virus, 72 h, read-out: IC50 Zika. As for the experimental part:
FIG. 1. Graph of % infection of ZIK-V-RLuc at 72 h.p.i. vs. IC50 concentration (μM) of compound I-36.
FIG. 2. Graph of % infection of ZIK-V-RLuc at 72 h.p.i. vs. IC50 concentration (μM) of compound I-37.
Single Epimers I-36 and I-37, of I-1 were tested in the Rluc assay at 72 h.p.i. for % inhibition vs. concentration of compound (FIGS. 1-2): […]

Take `CCOC(=O)[C@H](C)NP(=O)(OC[C@@]1(N=[N+]=[N-])O[C@@H](n2ccc(=O)[nH]c2=O)[C@H](O)[C@@H]1O)Oc1cccc2ccccc12` (stereo partly drawn) [Compound I-3, ethyl ((((2R,3S,4R,5R)-2-azido-5-(2,4-dioxo-3,4-dihydropyrimidin-1(2H)-yl)-3,4-dihydroxytetrahydrofuran-2-yl)methoxy)(naphthalen-1-yloxy)phosphoryl)-L-alaninate]: the concentration giving a half-maximal response (EC50) (in general, the midpoint of the concentration-response curve) in series [1] (Zika virus, ZIKV strain MR766, human Huh-7 or mouse MEF cells) is 0.48 µM; in series [3] it was 0.4 µM; in [4], 4.1 µM. For the same molecule, the “antiviral inhibition potency (EC50), in words” value in series [1] (summary statement) is given as “submicromolar”. In addition, the half-maximal cytotoxic concentration (CC50) – broadly, the concentration at which the toxic effect on the cells reaches its halfway point – at 3 day in series [2] (cytotoxicity column of the ZIKV assay, read-out: ZIKV CC50) is above 100 µM; in series [2] (summary statement, cytotoxicity in cell culture, read-out: Huh-7 cell CC50), above 100 µM. The cytotoxic concentration (CC50) (in “in vitro”; in series [5]) was above 100 µM throughout. In addition, the “inhibition of human RNA polymerase I activity (reporter gene)” value at human RNA polymerase I is recorded as “did not inhibit”. In addition, the “inhibition of human RNA polymerase II activity (reporter gene)” value against human RNA polymerase II is reported as “did not inhibit”. Moreover, the “inhibition of human RNA polymerase III activity (reporter gene)” value against human RNA polymerase III is recorded as “did not inhibit”.
Regarding `Cc1cn([C@H]2C[C@H](N=[N+]=[N-])[C@@H](COP(=O)(O)OP(=O)(O)OP(=O)(O)O)O2)c(=O)[nH]c1=O` [AZT triphosphate], the IC50 (in general, the concentration that inhibits the measured activity by half) in [6] was 2.47 µM.
For `[N-]=[N+]=N[C@]1(CO)O[C@@H](n2ccc(=O)[nH]c2=O)[C@H](O)[C@@H]1O` [Compound 4AU, 4′-azidouridine], the EC50 was 217 µM in series [3] and above 100 µM in series [4]. In addition, the CC50 (in the series “in vitro”; in [5]) was above 1000 µM each time. Besides, the mitochondrial toxicity entry in the series on HepG2 cells is “No mitochondrial toxicity; also recorded: lack of mitochondrial toxicity”. In addition, in [7], the “conversion to 4AU-triphosphate (4AUTP)” value is on record as “not efficiently converted”. Further, the “safety in chronic toxicity study, rats” value in series [8] is given as “safety of 4AU has already been demonstrated”. Besides, the “safety in chronic toxicity study, monkeys” value in series [9] is given as “safety of 4AU has already been demonstrated”. For the same molecule, the “antiviral activity against HCV replication in Phase 1 study” value with HCV replication is given as “significant antiviral activity”. The “safety in Phase 1 clinical study” value in [10] is reported as “safety of 4AU has already been demonstrated”.
Turning to `C[C@H](N[P@@](=O)(OC[C@@]1(N=[N+]=[N-])O[C@@H](n2ccc(=O)[nH]c2=O)[C@H](O)[C@@H]1O)Oc1cccc2ccccc12)C(=O)OCc1ccccc1` [Compound I-36, benzyl ((R)-(((2R,3S,4R,5R)-2-azido-5-(2,4-dioxo-3,4-dihydropyrimidin-1(2H)-yl)-3,4-dihydroxytetrahydrofuran-2-yl)methoxy)(naphthalen-1-yloxy)phosphoryl)-L-alaninate], in the series on ZIK-V-RLuc, the IC50 was 1.1 µM.
As to `Nc1ccn([C@@H]2CS[C@H](COP(=O)(O)OP(=O)(O)OP(=O)(O)O)O2)c(=O)n1` [lamivudine triphosphate], in [6], the IC50 came out at 149 µM.
Turning to `C[C@H](N[P@](=O)(OC[C@@]1(N=[N+]=[N-])O[C@@H](n2ccc(=O)[nH]c2=O)[C@H](O)[C@@H]1O)Oc1cccc2ccccc12)C(=O)OCc1ccccc1` [Compound I-37, benzyl ((S)-(((2R,3S,4R,5R)-2-azido-5-(2,4-dioxo-3,4-dihydropyrimidin-1(2H)-yl)-3,4-dihydroxytetrahydrofuran-2-yl)methoxy)(naphthalen-1-yloxy)phosphoryl)-L-alaninate], the 50% inhibitory concentration (IC50) with ZIK-V-RLuc worked out at 1.65 µM.
